Patent publication US5436229A, “Bisulfite adducts of arginine aldehydes” (Eli Lilly and Company, priority 1994, dated 1995)

Assay: Epimerization inhibition by sodium bisulfite (compound of Example 80, Step F)
Type: physicochemical
Conditions: pH 7.4, 50° C.
Description: A 55.55 mM aqueous sodium phosphate solution (adjusted pH 7.4 with sodium hydroxide) was mixed with a 27.77 mM sodium bisulfite/27.77 mM sodium phosphate solution (adjusted pH 7.4 with sodium hydroxide) and water in various ratios to produce buffers containing 0,5.55, 16.66 and 27.77 mM sodium bisulfite. A 0.9 ml aliquot of each sodium bisulfite/phosphate buffer was added to separate 13×100 mm culture tubes and placed in a 50° C. Isotherm Tempblok® heater for 15 minutes. To each culture tube 0.1 ml of a 1 mg/ml aqueous solution of D-3-Piq-Pro-Arg-H.H2 SO4 (Example 80, Step F) was added and mixed well. […] These samples were allowed to react for 15 minutes at 90° C. and were then evaporated to dryness with nitrogen in a 55° C. N-Evap. The residue was dissolved in 1 ml of methanol and transferred to Varian Si BondElut SPE columns (1 ml) previously conditioned with 1 ml of water then 1 ml of methanol. The dissolved samples were pulled through solwly with a slight vacuum, and the sorbent layer was then washed with 2-1 ml volumes of methanol. The SPE columns were then dried at full vacuum (~25 in. Hg) and the compounds of interest were eluted with 300 μl of acetonitrile/100 mM sodium dodecyl sulfate (adjusted to pH 3 with phosphoric acid) (7:3, v/v) into 12×75 mm culture tubes. These eluates were analyzed by the HPLC system described below.
The mobile phase was acetonitrile/180 mM sodium dodecyl sulfate (adjusted to pH 3 with phosphoric acid) (85:15, v/v) pumped at 0.5 ml/min with a Shimadzu LC-10AD pump. The column was an Inertsil ODS(2) 150×3.0 mm maintained at 40° C. with a Jones Chromatography 7960 column heater. Twenty-five microliter injections were made with a Waters WISP 712 autosampler. Detection was accomplished with a Kratos 783 UV detector at 360 nm. The percentage of the DLD isomer was calculated using the peak areas of the DLL and DLD isomers in the chromatograms and the following equation: [formula]

For `N=C(N)NCCCC(C=O)NC(=O)C1CCCN1C(=O)C1CC2CCCCC2CN1.O=S(=O)(O)O` [80 (Step F), D-3-(cis)Piq-Pro-Arg-H.H2 SO4], the “Percentage of DLD Isomer” value (sodium bisulfite 0 mM, 0 hr) was 4.84%, the “Percentage of DLD Isomer” value (sodium bisulfite 0 mM, 0.5 hr) was 46.00% and the “Percentage of DLD Isomer” value (sodium bisulfite 0 mM, 1 hr) was 49.42%. For the same compound, the “Percentage of DLD Isomer” value (sodium bisulfite 0 mM, 2 hr) was 49.53%, the “Percentage of DLD Isomer” value (sodium bisulfite 0 mM, 3 hr) was 50.16% and the “Percentage of DLD Isomer” value (sodium bisulfite 0 mM, 4 hr) was 50.36%. For the same compound, the “Percentage of DLD Isomer” value (sodium bisulfite 0 mM, 6 hr) was 49.71%, the “Percentage of DLD Isomer” value (sodium bisulfite 0 mM, 8 hr) was 49.92% and the “Percentage of DLD Isomer” value (sodium bisulfite 5 mM, 0 hr) was 4.23%. The “Percentage of DLD Isomer” value (sodium bisulfite 5 mM, 0.5 hr) was 43.52%, the “Percentage of DLD Isomer” value (sodium bisulfite 5 mM, 1 hr) was 48.99% and the “Percentage of DLD Isomer” value (sodium bisulfite 5 mM, 2 hr) was 47.98%. The “Percentage of DLD Isomer” value (sodium bisulfite 5 mM, 3 hr) was 49.89%, the “Percentage of DLD Isomer” value (sodium bisulfite 5 mM, 4 hr) was 49.90% and the “Percentage of DLD Isomer” value (sodium bisulfite 5 mM, 6 hr) was 49.80%. For the same compound, the “Percentage of DLD Isomer” value (sodium bisulfite 5 mM, 8 hr) was 50.08%, the “Percentage of DLD Isomer” value (sodium bisulfite 15 mM, 0 hr) was 4.16% and the “Percentage of DLD Isomer” value (sodium bisulfite 15 mM, 0.5 hr) was 27.80%. The “Percentage of DLD Isomer” value (sodium bisulfite 15 mM, 1 hr) was 40.63%, the “Percentage of DLD Isomer” value (sodium bisulfite 15 mM, 2 hr) was 45.06% and the “Percentage of DLD Isomer” value (sodium bisulfite 15 mM, 3 hr) was 45.72%. For the same compound, the “Percentage of DLD Isomer” value (sodium bisulfite 15 mM, 4 hr) was 49.24%, the “Percentage of DLD Isomer” value (sodium bisulfite 15 mM, 6 hr) was 49.63% and the “Percentage of DLD Isomer” value (sodium bisulfite 15 mM, 8 hr) was 49.99%. The “Percentage of DLD Isomer” value (sodium bisulfite 25 mM, 0 hr) was 3.71%, the “Percentage of DLD Isomer” value (sodium bisulfite 25 mM, 0.5 hr) was 4.56% and the “Percentage of DLD Isomer” value (sodium bisulfite 25 mM, 1 hr) was 5.14%. For the same compound, the “Percentage of DLD Isomer” value (sodium bisulfite 25 mM, 2 hr) was 5.31%, the “Percentage of DLD Isomer” value (sodium bisulfite 25 mM, 3 hr) was 5.79% and the “Percentage of DLD Isomer” value (sodium bisulfite 25 mM, 4 hr) was 6.06%. For the same compound, the “Percentage of DLD Isomer” value (sodium bisulfite 25 mM, 6 hr) was 6.39% and the “Percentage of DLD Isomer” value (sodium bisulfite 25 mM, 8 hr) was 6.72%.
